Structures are written as SMILES.

What all share (type): in vivo
For data set [1], the system named is monochoria (Monochoria veginalis). Kind of data set: Herbicidal effect on upland weeds pre-emergence. To be noted: upland pre-emergence spray, 5 kg/ha, 14 days after treatment. From the text:
(§1) Polyethylene-made vats having a size of 10 cm (length)×20 cm (width)×5 cm (height) were filled with soil, sown with seeds of Arabidopsis thialiana, bent grass (Agrostis spp.) and monochoria (Monochoria veginalis), and with seeds of wheat and soybean plant as upland crop plants, and then covered with soil. Then, a liquid preparation of an agent comprising a prescribed concentration of a compound obtained in Reference Example 1 as active ingredient was sprayed.
(§2) Fourteen days after the treatment, the herbicidal effect was investigated, from which weed-killing rate was calculated in the same manner as in Reference Example 2, and the herbicidal effect was judged.

Data set [2] concerns Arabidopsis thaliana. Kind of data set: Herbicidal effect on upland weeds pre-emergence. To be noted: upland pre-emergence spray, 5 kg/ha, 14 days after treatment.
Description: as §1, §2

Data set [3] concerns bent grass (Agrostis spp.). Kind of data set: Herbicidal effect on upland weeds pre-emergence. To be noted: upland pre-emergence spray, 5 kg/ha, 14 days after treatment.
Description: as §1, §2

For data set [4], the system named is bulrush (Scirpus juncoides Roxb.). Kind of data set: Herbicidal effect on paddy field weeds pre-emergence. The conditions noted are these: paddy soil treatment pre-emergence, 5 kg/ha, 21 days after treatment. As for the experimental part: (§3) Soil was filled into 1/10000 are pots and brought into a state of paddy field, in which seeds of barnyard grass (Echinochloa crus-galli Beauv.) and bulrush (Scirpus juncoides Roxb.) were made to be before germination. The soil in the pots were treated with a solution containing a predetermined dosage of a chemical agent comprising a compound obtained in Reference Example 1 as the active ingredient.
(§4) Twenty one days after the treatment, the herbicidal effect was investigated, the result was compared with that in untreated plot to calculate the weedkilling rate, and the herbicidal effect was judged according to the following criterion.

Data set [5] has as its system barnyard grass (Echinochloa crus-galli Beauv.). The data set is described as above. The conditions noted are these: paddy soil treatment pre-emergence, 5 kg/ha, 21 days after treatment. As to the method:
as §3, §4

In data set [6] the test system is monochoria (Monochoria veginalis). The data set is described as follows: Herbicidal effect on upland weeds after emergence. To be noted: after emergence (1 to 2 leaved stage) spray, 5 kg/ha, 14 days after treatment. From the text: (§5) Polyethylene-made vats having a size of 10 cm (length)×20 cm (width)×5 cm (height) were filled with soil, sown with the seeds of the upland weeds mentioned below and with seeds of soybean plant and wheat as upland crop plants, and then covered with soil. The plants were made to grow up until they reached the 1 to 2 leaved stage, after which an agent comprising a prescribed concentration of a compound obtained in Reference Example 1 as active ingredient was sprayed.
(§6) Fourteen days after the treatment, the herbicidal effect was investigated, from which weed-killing rate was calculated in the same manner as in Reference Example 2 and the results were judged. At the same time, phytotoxicity on soybean plant and wheat was investigated and judged in the same manner as in Reference Example 2.

Data set [7] deals with Arabidopsis thaliana. The data set is described as follows: Herbicidal effect on upland weeds after emergence. The conditions noted are these: after emergence (1 to 2 leaved stage) spray, 5 kg/ha, 14 days after treatment.
Description: as §5, §6

Data set [8] relates to bent grass (Agrostis spp.). The data set is described as follows: Herbicidal effect on upland weeds after emergence. To be noted: after emergence (1 to 2 leaved stage) spray, 5 kg/ha, 14 days after treatment.
Description: as §5, §6

The subject of data set [9] is wheat. The data set is described as follows: Phytotoxicity on upland crop plants, after-emergence test. The conditions noted are these: after emergence spray, 5 kg/ha, 14 days after treatment.
Description: as §5, §6

Data set [10] deals with soybean plant. The description is as above. To be noted: after emergence spray, 5 kg/ha, 14 days after treatment.
Description: as §5, §6

The test system of the next data set is paddy rice. Kind of data set: Phytotoxicity on paddy rice (paddy field pre-emergence test). To be noted: 5 kg/ha, 21 days after treatment. As for the experimental part:
as §3, §4
At the same time, phytotoxicity on paddy rice was investigated, and judged according to the following criterion.

The test system of data set [11] is wheat. The data set is described as follows: Phytotoxicity on upland crop plants, pre-emergence test. The conditions noted are these: upland pre-emergence spray, 5 kg/ha, 14 days after treatment.
Description: as §1, §2
(§7) At the same time, phytotoxicity on soybean plant and wheat was investigated and judged according to the criterion mentioned in Reference Example 1.

The subject of data set [12] is soybean plant. The data set is described as above. To be noted: upland pre-emergence spray, 5 kg/ha, 14 days after treatment.
Description: as §1, §2, §7

On to `CN(C)C(=O)Nc1ccc(C(F)(C(F)(F)F)C(F)(F)F)cc1` [Reference Example 1, 1,1-dimethyl-3-(4-heptafluoroisopropylphenyl)urea], for which the “herbicidal effect (rating)” value in data set [1] is reported as 5 (Weedkilling rate is 100%.); with Arabidopsis thaliana [2] it was 5 (Weedkilling rate is 100%.); in data set [3], 4 (Weedkilling rate is 90–99%.); in [4], 2 (Weedkilling rate is 40–69%.); in [5], 4 (Weedkilling rate is 90–99%.); in [6], 3 (Weedkilling rate is 70–89%.). Moreover, the figures for the “herbicidal effect (rating)” value (in the data set on Arabidopsis thaliana [7]; in [8]) were 5 (Weedkilling rate is 100%.) and 3 (Weedkilling rate is 70–89%.), respectively. Also, the “phytotoxicity (rating)” value in the data set on wheat [9], in the data set on soybean plant [10], in the data set on paddy rice, with wheat [11] and in the data set on soybean plant [12] was 0 (Weedkilling rate is 0–20 (No phytotoxicity).) each time.

For the origin of these results see patent US7169955B2, “Perfluoroisopropylbenzene derivative” (Nihon Nohyaku Co., Ltd., priority 2000, dated 2007).
